# Assay results reported in US10786522B2, “Compositions that include anthocyanidins and methods of use” (Maqui NewLife S.A., priority 2009, dated 2020).
# How the values were obtained:
# [1] = system: Human T cells; experiment: IL-2 production in freshly isolated human T cells (ELISA); format: cell-based; details: for Average IL-2 production / Percentage compared to the control (IL-2): 48 hrs
# Description: (§1) The effect of delphinidin on IL-2 and INF-γ production was also assayed on freshly isolated human T cells. Human T cells were isolated from blood of healthy volunteers using Lymphoprep reagent. T cells (1×10^6) in RMPI medium were incubated for 48 hrs at 37° C., in 5% CO2 in the presence of a vehicle control solution; 50 μM delphinidin; 50 μM delphinidin+1 μM BTP-2; 50 μM delphinidin+5 μM BTP-2; 50 μM delphinidin+10 μM BTP-2; 1 μM BTP-2; 5 μM. BTP-2; or 10 μM BTP-2. Then the supernatants were collected and analyzed using commercial ELISA kit (Becton Dickinson, USA) to measure IL-2 and INF-γ production according to the supplier's directions.
# We evaluated the effect of a combination of delphinidin and andandrographolide on IL-2 production in both freshly harvested human T cells and the Jurkat cell line. Andrographolide was prepared according to the method described in Example 4. Human T cells were isolated from blood of healthy volunteers using Lymphoprep reagent. T cells (1×10^6) in RMPI medium were incubated for 48 hrs at 37° C., in 5% CO2 in the presence of a vehicle control solution; 5 nM andrographolide; 50 μM delphinidin; or 5 nM andrographolide plus 50 μM delphinidin. Then the supernatants were collected and analyzed using commercial ELISA kit (Becton Dickinson, USA) to measure IL-2 production according to the supplier's directions.
# [2] = system: Jurkat T cells; experiment: IL-2 production in Jurkat T cells (ELISA); format: cell-based
# Description: (§2) 2×10^6 Jurkat T cells in RPMI medium were incubated for 48 hrs at 37° C., in 5% CO2 in the presence of vehicle control solution; or the T cell activator, phorbol 12-myristate 13-acetate/lonomycin (PMA/Io 2 ng/ml 1 uM); 50 μM of delphinidin; 50 μM delphinidin+PMA/Io; 50 μM cyanidin; or 50 μM cyaniding+PMA/Io. Then the supernatants were collected and IL-2 production was analyzed by ELISA using a commercial kit (Becton Dickinson, USA) according to the supplier's directions.
# Then the supernatants were collected and analyzed using commercial ELISA kit (Becton Dickinson, USA) to measure IL-2 production according to the supplier's directions.
# Jurkat T cells were incubated in either a vehicle control solution; 5 nM andrographolide; 50 μM delphinidin; or 5 nM andrographolide plus 50 μM delphinidin.
# [3] = system: Jurkat T cells; experiment: INF-γ production in Jurkat T cells (ELISA); format: cell-based; details: 48 hrs; for Average INF-γ production / Percentage vs. control (INF-γ): delphinidin 50 μM, cyanidin 50 μM, PMA/Io 2 ng/ml 1 uM
# Description: as §2, with “We also explored the effect of delphinidin and cyanidin on Interferon-gamma (INF-γ) production in Jurkat T cells. 2×10^6” for “2×10^6”, “CO2. The samples were incubated” for “CO2”, “13-acetate/Ionomycin” for “13-acetate/lonomycin”, “IFN-γ” for “IL-2”
# [4] = system: Jurkat T cells; experiment: Calcium release in Jurkat T cells in HBSS calcium free medium; format: cell-based
# Description: To measure calcium release, 4×10^6 FURA 2-AM-loaded Jurkat T cells were incubated in HBSS calcium free medium as decribed in Example 6. The cells were incubated in 50 uM delphinidin, or in 50 uM delphinidin and 10 μM N-[4-[3,5-bis(trifluoromethyl)-1H-pyrazol-1-yl]phenyl]-4-methyl-1,2,3-thiadiazole-5-carboxamide (BTP-2, a Store-Operated Calcium Entry (SOCE) inhibitor). The release of Ca^2+ was measured as ratio of excitation at 340 and 380 nm, and emission at 509 nm, for 200 seconds, at 37° C., in a spectrofluorimeter (LS55, PerkinElmer).
# (§3) 4×10^6 FURA 2-AM-loaded Jurkat T cells were incubated in HBSS calcium free medium. The cells were then incubated in 50 uM delphinidin and the fluxes of Ca^2+ were measured as ratio of excitation at 340 and 380 nm, and emission at 509 nm, at 37° C. in a spectrofluorimeter (LS55, PerkinElmer).
# 4×10^6 FURA 2-AM-loaded Jurkat T cells were incubated in HBSS calcium free medium. The cells were then treated with vehicle alone or 50 or 100 uM U73122 for 10 minutes prior to incubation in 50 uM delphinidin. Ca^2+ flux was measured as ratio of excitation at 340 and 380 nm, and emission at 509 nm, at 37° C. in a spectrofluorimeter (LS55, PerkinElmer).
# [5] = system: Human T cells; experiment: INF-γ production in freshly isolated human T cells (ELISA); format: cell-based
# Description: as §1
# [6] = system: Jurkat T cells; experiment: Calcium entry (SOCE) in Jurkat T cells after addition of CaCl2; format: cell-based; details: 0.9 mM CaCl2 added after 200 seconds; delphinidin 50 μM, BTP-2 10 μM
# Description: To measure calcium entry after 200 seconds, when the levels of calcium returned to the baseline, 0.9 mM of CaCl2 was added, and the fluxes of Ca^2+ were measured as ratio of excitation ratio at 340 and 380 nm, and emission at 509 nm in a spectrofluorimeter during 150 seconds.
# as §3, with “were” for “were then”, “delphinidin or 50 uM delphinidin plus 10 μM BTP-2” for “delphinidin”
# [7] = system: Jurkat T cells; experiment: Ca2+ fluxes in FURA 2-AM-loaded Jurkat T cells (spectrofluorimetry, medium with CaCl2); format: cell-based
# Description: We evaluated the effect of delphinidin on intracellular calcium release in Jurkat T cells. Extracts were prepared according to the method of Example 1. Jurkat T cells in Hanks' Balanced Salt Solution (HBSS) medium (Invitrogen) with 0.9 mM of CaCl2 were loaded with Fura-2-acetoxymethyl ester (2.5 uM FURA 2-AM) for 30 min at 37° C., washed and incubated in 10 μM, 50 μM, and 100 μM delphinidin. The fluxes of Ca^2+ were measured as ratio of excitation at 340 and 380 nm, and emission at 509 nm, for 300 seconds, at 37° C. in a spectrofluorimeter (LS55, PerkinElmer).
# [8] = system: Jurkat T cells; experiment: IL-2 production in Jurkat T cells (ELISA); format: cell-based; details: Table 9; 48 hrs; delphinidin 50 μM, CsA
# [9] = system: PPAR-γ; experiment: PPAR-γ-Luc reporter assay in HL-60 cells; format: cell-based, Human; details: control substances, 12 h, concentration not given
# Description: We examined the effect of delphindin-rich anthocyanidins on PPAR-γ activation. HL-60 cells in IMDM medium were transfected with the reporter vectors PPAR-γ-Luc (5 μg) (Panomics) and TK-RL (1 μg) (Promega) using Fugene 6 reagent (Roche), and cultured for 24 hr. Then, the cells were incubated for 12 h in 0.175, 1.75, or 17.5 μg/ml of delphindin-rich anthocyanidins, phorbol myristate acetate (PMA), 15-deoxi-d 12,14-prostaglandin J2 (PGj2), or tumor necrosis factor alpha (TNFα) as controls. Luciferase activity was measured using the Dual-Luciferase Reporter Assay kit (DLR) from Promega in a luminometer (Luminoskan).
# [10] = Table 10, andrographolide 5 nM, delphinidin 50 μM
# [11] = andrographolide 5 nM, delphinidin 50 μM
# [12] = Table 11, andrographolide 5 nM, delphinidin 50 μM
# [13] = Table 5, 48 hrs, delphinidin 50 μM, cyanidin 50 μM, PMA/Io 2 ng/ml 1 uM
# [14] = calcium free medium, delphinidin 50 μM, BTP-2 10 μM
# [15] = 48 hrs, 50 μM delphinidin alone
compound,measurement,setting,value
C=C1CC[C@@H]2[C@](C)(CO)[C@H](O)CC[C@@]2(C)[C@@H]1C/C=C1/C(=O)OC[C@H]1O [andrographolide],Average IL-2 production,[1]; [10],85 pg/mL
same,Percentage compared to the control (IL-2),[1]; [10],212.5%
same,IL-2 levels higher (Table 10),[1]; [11],112%
same,Average IL-2 production,[2]; [12],0.0140 Abs 450 nm
same,Percentage compared to the control (IL-2),[2]; [12],84.8%
"Oc1cc(O)c2cc(O)c(-c3ccc(O)c(O)c3)[o+]c2c1 [cyanidin, Cyanidin]","INF-γ levels relative to control cells, result in words",[3]; 50 μM,about the same levels
same,Average INF-γ production,[3],8 pg/mL
same,Percentage vs. control (INF-γ),[3],100%
same,IL-2 lower than control cells,"[2]; 50 μM, 48 hrs",10%
same,Average IL-2 production,[2]; [13],45 pg/mL
same,Percentage vs. control (IL-2),[2]; [13],90%
"Oc1cc(O)c2cc(O)c(-c3cc(O)c(O)c(O)c3)[o+]c2c1 [delphinidin, Delphinidin]","calcium release (FIG. 1), result in words","[4]; 50 uM delphinidin, calcium free medium",induced reversible calcium release
same,Average AUC of ratio 340/380 during 200 seconds (calcium release),[4]; [14],51
same,Percentage compared to the control (calcium release),[4]; [14],1700%
same,AUC higher than untreated control cells (calcium release),"[4]; delphinidin 50 μM, BTP-2 10 uM",1700%
same,INF-γ levels higher than untreated control cells,[5]; 50 μM delphinidin,950%
same,Average INF-γ production,[5]; [15],3900 pg/mL
same,Percentage vs. control (INF-γ),[5]; [15],1054.1%
same,Average AUC of ratio 340/380 150 sec. after calcium treatments (calcium entry),[6],70
same,Percentage compared to control (calcium entry),[6],184.2%
same,Average IL-2 production,"[1]; Table 7, 50 μM delphinidin alone",370 pg/mL
same,Average IL-2 production,[1]; [10],87 pg/mL
same,Percentage compared to the control (IL-2),[1]; [10],217.5%
same,IL-2 levels higher (Table 10),[1]; [11],117%
same,Average area under the curve of ratio 340/380 during 300 seconds,[7]; 10 μM delphinidin,100
same,Percentage compared to control,[7]; 10 μM delphinidin,166.7%
same,area under the curve higher than untreated control cells,[7]; 10 μM delphinidin,66.7%
same,Average area under the curve of ratio 340/380 during 300 seconds,[7]; 50 μM delphinidin,225
same,Percentage compared to control,[7]; 50 μM delphinidin,375%
same,area under the curve higher than untreated control cells,[7]; 50 μM delphinidin,275%
same,Average area under the curve of ratio 340/380 during 300 seconds,[7]; 100 μM delphinidin,250
same,Percentage compared to control,[7]; 100 μM delphinidin,416.7%
same,area under the curve higher than untreated control cells,[7]; 100 μM delphinidin,316.7%
same,"Ca2+ fluxes, result in words","[7]; 10, 50, 100 μM delphinidin",induced Ca^2+ fluxes in Jurkat T cells in a dose-dependent manner
same,Average IL-2 production,[8],240 pg/mL
same,INF-γ levels higher than untreated control cells,[3]; 50 μM,250%
same,Average INF-γ production,[3],28 pg/mL
same,Percentage vs. control (INF-γ),[3],350%
same,IL-2 levels higher than untreated control cells,"[2]; 50 μM, 48 hrs",240%
same,Average IL-2 production,[2]; [13],170 pg/mL
same,Percentage vs. control (IL-2),[2]; [13],340%
same,Average IL-2 production,[2]; [12],0.023 Abs 450 nm
same,Percentage compared to the control (IL-2),[2]; [12],139.4%
same,IL-2 levels higher (Table 11),[2]; [11],39.4%
tumor necrosis factor alpha [TNFα],Average percentage activity of control [PPAR-γ-Luc/TK-RL] ± SD,[9],283.4 ± 47.23%
